Test results from ChEMBL document CHEMBL1139246, “Pyridine-3-carboxamides as novel CB(2) agonists for analgesia” (Bioorg Med Chem Lett, 2009).
Where “and” joins values, the source holds several entries; their conditions need not be identical. Identical values can stand only once.

Tested on: Rattus norvegicus
Test: Dose normalized AUC (0 to t) in rat at 30 mg/kg, po after 6 hrs
Type: ADME, organism-based
Design: time < 6 hr, dose 30 mg/kg, route oral
Conditions: in vivo

Compound | AUC [kg·min/L]
CC(C)(C)c1cc(Nc2ccc(Cl)cc2Cl)ncc1C(=O)NCC1CCOCC1 | 16
O=C(NCC1CCOCC1)c1cnc(Nc2ccc(Cl)cc2Cl)cc1C1CC1 | 15
O=C(NCC1CCOCC1)c1cnc(Nc2cccc(Br)c2)cc1C1CC1 | 5
O=C(NCC1CCOCC1)c1cnc(Nc2cccc(OC(F)(F)F)c2)cc1C1CC1 | 3

Tested on: not listed separately
Test: Half life in rat at 1 mg/kg, iv
Type: ADME, organism-based
Design: dose 1 mg/kg, route intravenous
Conditions: in vivo

Compound | half-life [h]
O=C(NCC1CCOCC1)c1cnc(Nc2ccc(Cl)cc2Cl)cc1C1CC1 | 3.1

Tested on: not listed separately
Test: Dissociation constant, pKa of the compound
Type: physicochemical
Conditions: not given

Compound | pKa
CC(C)c1cc(Nc2cccc(C(F)(F)F)c2F)ncc1C(=O)NCC1CCOCC1 | 6.02
COc1cccc(Nc2cc(C(C)C)c(C(=O)NCC3CCOCC3)cn2)c1 | 6.02
CC(C)c1cc(Nc2cccc(Cl)c2)ncc1C(=O)NCC1CCCC1 | 6.02
CC(C)c1cc(Nc2cccc(Cl)c2)ncc1C(=O)NCC1CCOCC1 | 6.02
CC(C)c1cc(Nc2cccc(Cl)c2)ncc1C(=O)NCC(C)(C)C | 6.02
Cc1cccc(Nc2cc(C(C)C)c(C(=O)NCC3CCOCC3)cn2)c1 | 6.02
CC(C)c1cc(Nc2cccc(C#N)c2)ncc1C(=O)NCC1CCOCC1 | 6.02
Cc1cc(Cl)ccc1Nc1cc(C(F)(F)F)c(C(=O)NCC2CCOCC2)cn1 | 2.63
CC(C)c1cc(Nc2cccc(Cl)c2)ncc1C(=O)NCc1ccc(F)cc1 | 6.02
CC(C)c1cc(Nc2ccc(Cl)cc2Cl)ncc1C(=O)NCC1CCOCC1 | 6.02
NC(=O)c1ccc(CNC(=O)c2cnc(Nc3cccc(Cl)c3)cc2C(F)(F)F)cc1 | 2.63
O=C(NCC1CCCCC1)c1cnc(Nc2cccc(Cl)c2)cc1C(F)(F)F | 2.63
O=C(NCC1CCOCC1)c1cnc(Nc2cccc(Cl)c2)cc1C(F)(F)F | 2.63
O=C(NCC1CCCC1)c1cnc(Nc2ccc(Cl)cc2Cl)cc1C(F)(F)F | 2.63
CC(C)CNC(=O)c1cnc(Nc2cccc(Cl)c2)cc1C(C)C | 6.02
CC(C)c1cc(Nc2cccc(Cl)c2)ncc1C(=O)NC1CCOCC1 | 6.02
CC(C)c1cc(Nc2ccc(C#N)c(Cl)c2)ncc1C(=O)NCC1CCOCC1 | 6.02
O=C(NCC1CCOCC1)c1cnc(Nc2cccc(F)c2)cc1C(F)(F)F | 2.63
CC(C)c1cc(Nc2cccc(Br)c2)ncc1C(=O)NCC1CCOCC1 | 6.02
COc1ccc(Cl)cc1Nc1cc(C(F)(F)F)c(C(=O)NCC2CCOCC2)cn1 | 2.63
O=C(NCC1CCOCC1)c1cnc(Nc2ccc(Cl)cc2Cl)cc1C(F)(F)F | 2.63
O=C(NCc1ccc(F)cc1)c1cnc(Nc2cccc(Br)c2)cc1C(F)(F)F | 2.63
COc1ccc(Cl)cc1Nc1cc(C(F)(F)F)c(C(=O)NCC2CCC2)cn1 | 2.63
Cc1cccc(Nc2cc(C(C)C)c(C(=O)NCC3CCC3)cn2)c1 | 6.02
CCC(CC)CNC(=O)c1cnc(Nc2cccc(Cl)c2)cc1C(C)C | 6.02

Tested on: not listed separately
Test: Volume of distribution in rat at 1 mg/kg, iv
Type: ADME, organism-based
Design: dose 1 mg/kg, route intravenous
Conditions: in vivo

Compound | Vd [L/kg]
O=C(NCC1CCOCC1)c1cnc(Nc2ccc(Cl)cc2Cl)cc1C1CC1 | 2.4

Tested on: not listed separately
Test: Oral bioavailability in rat at 3 mg/kg
Type: ADME, organism-based
Conditions: in vivo

Compound | bioavailability [%]
O=C(NCC1CCOCC1)c1cnc(Nc2ccc(Cl)cc2Cl)cc1C1CC1 | 39

Tested on: not listed separately
Test: Clearance in rat at 1 mg/kg, iv
Type: ADME, organism-based
Design: dose 1 mg/kg, route intravenous
Conditions: in vivo

Compound | clearance
O=C(NCC1CCOCC1)c1cnc(Nc2ccc(Cl)cc2Cl)cc1C1CC1 | 14 mL/min/kg and 14 mL/min
